Test results from patent US20210330611A1, “THERAPY FOR NEUROLOGICAL DISEASES/DISORDERS” (priority 2020, published 2021).
Counter-ions that a name gives are not always drawn. Like-named read-outs stand apart in the source and are kept apart here.

How the values were obtained:
[1] = system: LPS-induced microglia activation; assay: Image-based assay of LPS-induced microglia activation (HTS and dose response); assay type: cell-based, rat; details: for inhibition at 10 µM: Rattus norvegicus, Microglia, read-out: LPS % inhibition
primary rat microglia [2] = system: primary rat microglia;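 on Fibrin % cell toxicity: share of dead cells sized under 150 µm2 at 10 µM in fibrin-stimulated microglia HTS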
[3] = system: fibrin- and LPS-induced microglia activation; assay: cells; assay type: cell-based, rat
[4] = system: fibrin-induced microglia activation; assay: Image-based assay of fibrin-induced microglia activation (HTS and dose response); assay type: cell-based, rat; details: for inhibition at 10 µM: Rattus norvegicus, Microglia, read-out: Fibrin % inhibition
primary rat microglia [5] = system: primary rat microglia; remark: listed apart in the source;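 on Fibrin % cell toxicity: share of dead cells sized under 150 µm2 at 10 µM in fibrin-stimulated microglia HTS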
[6] = primary microglia HTS, LPS stimulation, compounds at 10 μM
[7] = classification by fibrin and LPS inhibition, HTS at 10 μM
[8] = primary microglia HTS, fibrin stimulation, compounds at 10 μM
[9] = quadrant by fibrin and LPS inhibition, HTS at 10 μM
[10] = quadrant by fibrin and LPS inhibition in HTS of 1907 compounds

CN(C)CCCN1c2ccccc2CCc2ccc(Cl)cc21 [Clomipramine]
inhibition at 10 µM [1]: 32% | LPS % cell toxicity (primary rat microglia [2]; rat): 1% | Quadrant (FIG. 5b) [3]: Q4 | inhibition at 10 µM [4]: -1% | Fibrin % cell toxicity (primary rat microglia [5]; rat): 1%

CNCCCC12CCC(c3ccccc31)c1ccccc12 [Maprotiline hydrochloride, reference compound]
inhibition at 10 µM ([1]; 48 h): 67% | LPS % cell toxicity (primary rat microglia [2]; rat): 1% | Activity [3]: fib/LPS | Quadrant (FIG. 5b) [3]: Q1 | Fibrin % inhibition ([4]; hydrochloride): 31% | Fibrin % cell toxicity (primary rat microglia [5]; rat): 1%

C=CCN1CC[C@]23c4c5ccc(O)c4O[C@H]2C(=O)CC[C@@]3(O)[C@H]1C5 [Naloxone]
inhibition at 10 µM ([1]; 48 h): 21% | LPS % cell toxicity (primary rat microglia [2]; rat): 1% | Quadrant (FIG. 5b) [3]: Q4 | Fibrin % inhibition [4]: −41% | Fibrin % cell toxicity (primary rat microglia [5]; rat): 1%

Fc1ccc(C(c2ccc(F)cc2)N2CCN(C/C=C/c3ccccc3)CC2)cc1 [Flunarizine]
inhibition at 10 µM ([1]; 48 h): 12% | LPS % cell toxicity (primary rat microglia [2]; rat): 1% | Quadrant (FIG. 5b) [3]: Q4 | inhibition at 10 µM [4]: -10% | Fibrin % cell toxicity (primary rat microglia [5]; rat): 1%

OCC(S)CS (stereo not shown) [Dimercaptopropanol, Dimercaprol]
LPS % inhibition [1, 6]: 16% | LPS % cell toxicity (primary rat microglia [2]): 0% | Quadrant (FIG. 5b) [3, 7]: Q4 | Fibrin % inhibition [4, 8]: 49% | Fibrin % cell toxicity (primary rat microglia [5]): 1%

Oc1ncnc2[nH]ncc12 [Allopurinol]
inhibition at 10 µM [1, 6]: 16% | LPS % cell toxicity (primary rat microglia [2]; rat): 0% | Quadrant (FIG. 5b) [3, 9]: Q4 | inhibition at 10 µM [4, 8]: -17% | Fibrin % cell toxicity (primary rat microglia [5]; rat): 1%

Cc1ccc(/C(=C\CN2CCCC2)c2ccccn2)cc1 [Triprolidine]
inhibition at 10 µM ([1]; primary microglia HTS, 10 μM, LPS-stimulated, cell size >800 μm^2 as marker of activation): 23% | LPS % cell toxicity (primary rat microglia [2]; rat): 0% | Quadrant (FIG. 5b) ([3]; HTS of 1907 compounds, quadrant by fibrin and LPS inhibition): Q4 | inhibition at 10 µM ([4]; primary microglia HTS, 10 μM, fibrin-stimulated, cell size >800 μm^2 as marker of activation): -24% | Fibrin % cell toxicity (primary rat microglia [5]; rat): 1%

CC(=O)O[C@H]1CC[C@@]2(C)C(=CC[C@@H]3[C@@H]2CC[C@]2(C)C(=O)CC[C@@H]32)C1 [Praesterone Acetate, Prasterone Acetate]
LPS % inhibition [1]: 5% | LPS % cell toxicity (primary rat microglia [2]): 0% | Quadrant (FIG. 5b) ([3]; classification by fibrin and LPS inhibition in HTS): Q4 | Fibrin % inhibition ([4]; primary microglia HTS, fibrin stimulation, cell size >800 μm2 as marker of activation): −3% | Fibrin % cell toxicity (primary rat microglia [5]): 1%

COP(=O)(OC)OC=C(Cl)Cl [Dichlorvos]
inhibition at 10 µM [1, 6]: 19% | LPS % cell toxicity (primary rat microglia [2]; rat): 1% | Quadrant (FIG. 5b) [3, 7]: Q4 | inhibition at 10 µM [4, 8]: -1% | Fibrin % cell toxicity (primary rat microglia [5]; rat): 1%

CN(C)CCC=C1c2ccccc2CCc2ccccc21 [Amitriptyline]
inhibition at 10 µM [1]: 30% | LPS % cell toxicity (primary rat microglia [2]; rat): 1% | Quadrant (FIG. 5b) [3]: Q4 | inhibition at 10 µM [4]: 14% | Fibrin % cell toxicity (primary rat microglia [5]; rat): 1%

CCOC(=O)c1ncn2c1CN(C)C(=O)c1cc(F)ccc1-2 [Flumazenil]
inhibition at 10 µM ([1]; 48 h, primary microglia HTS, LPS stimulation, activation = cell size >800 μm2): 14% | LPS % cell toxicity (primary rat microglia [2]; rat): 1% | Quadrant (FIG. 5b) [3, 10]: Q4 | inhibition at 10 µM ([4]; primary microglia HTS, fibrin stimulation, activation = cell size >800 μm2): 5% | Fibrin % cell toxicity (primary rat microglia [5]; rat): 1%

CCOP(=S)(OCC)Oc1nc(Cl)c(Cl)cc1Cl [Chlorpyrifos]
inhibition at 10 µM ([1]; primary HTS, 10 μM, LPS-stimulated primary microglia): 1% | LPS % cell toxicity (primary rat microglia [2]; rat): 0% | Quadrant (FIG. 5b) ([3]; primary HTS, 10 μM): Q4 | inhibition at 10 µM ([4]; primary HTS, 10 μM, fibrin-stimulated primary microglia): -7% | Fibrin % cell toxicity (primary rat microglia [5]; rat): 1%

NC[C@H]1O[C@H](O[C@H]2[C@H](O)[C@@H](O[C@H]3O[C@H](CO)[C@@H](O)[C@H](N)[C@H]3O)[C@H](N)C[C@@H]2N)[C@H](O)[C@@H](O)[C@@H]1O.O=S(=O)(O)O [Kanamycin Sulfate, Kanamycin A Sulfate]
LPS % inhibition [1]: 20% | LPS % cell toxicity (primary rat microglia [2]): 1% | Quadrant (FIG. 5b) [3]: Q4 | Fibrin % inhibition [4]: −13% | Fibrin % cell toxicity (primary rat microglia [5]): 0%

Cc1cn(-c2cc(NC(=O)c3ccc(C)c(Nc4nccc(-c5cccnc5)n4)c3)cc(C(F)(F)F)c2)cn1 [Nilotinib]
inhibition at 10 µM ([1]; 48 h, primary microglia HTS, LPS stimulation, increased cell size (>800 μm^2) as marker of activation): 17% | LPS % cell toxicity (primary rat microglia [2]; rat): 1% | Quadrant (FIG. 5b) [3, 10]: Q4 | inhibition at 10 µM ([4]; primary microglia HTS, fibrin stimulation, increased cell size (>800 μm^2) as marker of activation): -35% | Fibrin % cell toxicity (primary rat microglia [5]; rat): 1%

CC[C@@]1(O)C(=O)OCc2c1cc1n(c2=O)Cc2cc3c(CN(C)C)c(O)ccc3nc2-1 [Topotecan, Topotecan Hydrochloride]
LPS % inhibition [1, 6]: 112% | LPS % cell toxicity (primary rat microglia [2]): 40% | Quadrant (FIG. 5b) [3, 9]: Q2 | Fibrin % inhibition [4, 8]: 112% | Fibrin % cell toxicity (primary rat microglia [5]): 63%
